In brackets after ≈: the same amount, converted by molar mass.
Tests used:
Vibrio anguillarum [1] = experiment: Antimicrobial activity against Vibrio anguillarum QDIO-1 assessed as bacterial growth inhibition; type: functional
Vibrio parahaemolyticus [2] = experiment: Antibacterial activity against Vibrio parahaemolyticus assessed as bacterial growth inhibition by broth microdilution; type: functional
Vibrio sp. = experiment: Antibacterial activity against Vibrio sp. assessed as bacterial growth inhibition by GC-MS analysis; type: functional
Vibrio proteolyticus = experiment: Antimicrobial activity against Vibrio proteolyticus assessed as bacterial growth inhibition; type: functional
Vibrio harveyi [3] = experiment: Antimicrobial activity against Vibrio harveyi assessed as bacterial growth inhibition; type: functional
Vibrio natriegens = experiment: Antimicrobial activity against Vibrio natriegens assessed as bacterial growth inhibition; type: functional
Vibrio anguillarum [4] = experiment: Antimicrobial activity against Vibrio anguillarum assessed as bacterial growth inhibition by well diffusion method; type: functional
Vibrio harveyi [5] = experiment: Antimicrobial activity against Vibrio harveyi assessed as bacterial growth inhibition by two fold dilution assay; type: functional
Vibrio alginolyticus [6] = experiment: Antibacterial activity against Vibrio alginolyticus assessed as bacterial growth inhibition; type: functional
Vibrio vulnificus [7] = experiment: Antibacterial activity against Vibrio vulnificus MCCC E1758 assessed as bacterial growth inhibition measured after 24 hrs by resazurin dye based assay; type: functional
Vibrio mediterranei = experiment: Antimicrobial activity against Vibrio mediterranei assessed as bacterial growth inhibition; type: functional
Vibrio brasiliensis = experiment: Antimicrobial activity against Vibrio brasiliensis assessed as bacterial growth inhibition; type: functional
Vibrio scophthalmi = experiment: Antimicrobial activity against Vibrio scophthalmi assessed as bacterial growth inhibition; type: functional
Vibrio harveyi [8] = experiment: Antimicrobial activity against Vibrio harveyi BB120 assessed as bacterial growth reduction by bioluminescence based Quorum-Sensing assay; type: functional, organism-based
Vibrio vulnificus [9] = experiment: Antimicrobial activity against Vibrio vulnificus QDIO-4 assessed as bacterial growth inhibition by microtiter plate reader analysis; type: functional
Vibrio alginolyticus [10] = experiment: Antimicrobial activity against Vibrio alginolyticus QDIO-7 assessed as bacterial growth inhibition by microtiter plate reader analysis; type: functional
Vibrio vulnificus [11] = experiment: Antimicrobial activity against Vibrio vulnificus QDIO-7 assessed as bacterial growth inhibition by microplate reader assay; type: functional
Vibrio harveyi [12] = experiment: Antimicrobial activity against Vibrio harveyi QDIO-7 assessed as bacterial growth inhibition by microplate reader assay; type: functional
Vibrio rotiferianus = experiment: Antibacterial activity against Vibrio rotiferianus MCCC E385 assessed as bacterial growth inhibition measured after 24 hrs by resazurin dye based assay; type: functional
Vibrio alginolyticus [13] = experiment: Antibacterial activity against Vibrio alginolyticus assessed as zone of inhibition measured after 24 to 48 hrs by agar well diffusion assay; type: functional; conditions: time 24-48 hrs
Vibrio cholerae = experiment: Antibacterial activity against Vibrio cholerae assessed as zone of inhibition measured after 24 to 48 hrs by agar well diffusion assay; type: functional; conditions: time 24-48 hrs
Vibrio parahaemolyticus [14] = experiment: Antibacterial activity against Vibrio parahaemolyticus assessed as zone of inhibition measured after 24 to 48 hrs by agar well diffusion assay; type: functional; conditions: time 24-48 hrs

## CC(C)[C@@H](C)/C=C/[C@@H](C)[C@H]1CC[C@@H]2[C@]1(C)CC[C@H]1[C@]23O[C@H]3C(=O)C2=CC(=O)CC[C@@]21C
Vibrio anguillarum [1]
  MIC: 32 µg/mL (≈ 75.4 µM)

## COC(=O)[C@@H](C)CCc1cc(O)c(C)cc1O
Vibrio parahaemolyticus [2]
  MIC: 12.5 µg/mL (≈ 52.5 µM)

## O=C1CCC2(CCC(=O)N2)N1
Vibrio sp.
  MIC: ≤ 0.78 µg/mL

## C=CC(C)(C)C1(CC2NC(=O)c3ccccc3N(C)C2=O)C(=O)N(O)c2ccccc21 (configuration not stated)
Vibrio proteolyticus
  MIC: 0.1 µg/mL (≈ 0.238 µM)
Vibrio harveyi [3]
  MIC: 1 µg/mL (≈ 2.38 µM)
Vibrio natriegens
  MIC: 1 µg/mL (≈ 2.38 µM)

## C=C(C)[C@H]1O[C@H]2CC[C@@]3(C)[C@@](O)(CC[C@@]4(O)[C@@H]5OC(C)(C)[C@H]6C[C@@H]7C(=C)Cc8c(Cl)cc9[nH]c(c5c9c8[C@@]76O)[C@]34C)[C@]23O[C@@H]3[C@H]1O
Vibrio anguillarum [4]
  MIC: 16 µg/mL (≈ 24.6 µM)

## COC(=O)C1=CC(=O)C=C(OC)C12Oc1cc(C)cc(OC)c1C2=O (configuration not stated) [TRYPACIDIN]
Vibrio harveyi [5]
  MIC: 31.2 µg/mL (≈ 90.6 µM)

## CCCCCCC(O)CCCCCC/C=C/C(O)C1C=C(NC(C)=O)C(=O)O1 (configuration not stated)
Vibrio alginolyticus [6]
  MIC: 8 µg/mL (≈ 20.2 µM)

## CC[C@H](C)/C=C/C1=CC2=C(Cl)C(=O)[C@@]3(C)OC(=O)C(C(=O)[C@@H](C)[C@@H](C)O)=C3C2=CN1CCOCCO
Vibrio vulnificus [7]
  MIC: 7.4 µg/mL (≈ 14.2 µM)

## C=C(C(C)C)[C@H](C[C@@H](C)[C@H]1CC[C@H]2[C@@H]3C(=O)C=C4C[C@@H](O)CC[C@]4(C)[C@H]3CC[C@]12C)OC(C)=O
Vibrio mediterranei
  MIC: 8 µg/mL (≈ 17 µM)
Vibrio brasiliensis
  MIC: 9 µg/mL (≈ 19.1 µM)
Vibrio scophthalmi
  MIC: 8 µg/mL (≈ 17 µM)

## CC(C)CC(=O)NCCc1ccccc1
Vibrio harveyi [8]
  EC50: 9 µg/mL (≈ 43.8 µM)

## CC(=O)OC/C=C\c1ccc(O)cc1CO
Vibrio vulnificus [9]
  MIC: 8 µg/mL
Vibrio alginolyticus [10]
  MIC: 8 µg/mL

## COC(=O)CCc1oc2cc(O)cc(C)c2c1-c1cc(O)c(C)c(O)c1C
Vibrio vulnificus [11]
  MIC: 64 µg/mL
Vibrio harveyi [12]
  MIC: 32 µg/mL

## CC[C@H](C)/C=C/C1=CC2=C(Cl)C(=O)[C@@]3(C)OC(=O)C(C(=O)[C@@H](C)[C@@H](C)O)=C3C2=CN1NC(=O)c1ccc(O)cc1
Vibrio rotiferianus
  MIC: 7.3 µg/mL (≈ 12.9 µM)

## CCCCCCCCCCCCC(=O)NCCC(C)C
Vibrio alginolyticus [13]
  inhibition zone (IZ): 16.3 mm
Vibrio cholerae
  inhibition zone (IZ): 13.7 mm
Vibrio parahaemolyticus [14]
  inhibition zone (IZ): 9.66 mm

Source: ChEMBL document CHEMBL5360560, “Anti-Vibrio potential of natural products from marine microorganisms” (Eur J Med Chem, 2023)
